From PMC3338766 (2012)

Assays:
[1] = test system: d(T2G8) (DNA, G4) GGGGTTGGGG; assay: UV-Vis titration (soret shift 424–434 nm, 38.2% hypochromicity); details: K+ (100 mM KCl, 30 mM potassium phosphate); 5 µM TMPyP4, 25 °C
[2] = test system: d(T2G8) (DNA, G4) GGGGTTGGGG; assay: ESI-MS, relative binding affinity; details: 50 mM ammonium acetate; residual K+; 10 nM quadruplex and ligand, 10% methanol; intensity-derived index, not a constant
[3] = test system: d(T2G8) (DNA, G4) GGGGTTGGGG; assay: ITC; details: K+ (100 mM KCl, 30 mM potassium phosphate); pH 7.0, 25 °C; two-sites model; site 1 of 2
[4] = test system: d(T2G8) (DNA, G4) GGGGTTGGGG; assay: SYBR Green fluorescence melting; details: K+ (100 mM KCl, 30 mM potassium phosphate), 5 µM quadruplex, 1× SYBR Green, ligand concentration not stated

binding [1]	IRa [2]	K1 [3]	Tm ([4]; Tm 43 to 49 °C)	Tm ([4]; Tm 43 to 36 °C, derived from two Tm)	SMILES
yes	0.18	–	–	–	C[n+]1ccc(-c2c3nc(c(-c4cc[n+](C)cc4)c4ccc([nH]4)c(-c4cc[n+](C)cc4)c4nc(c(-c5cc[n+](C)cc5)c5ccc2[nH]5)C=C4)C=C3)cc1
–	0.67	0.0875 (±0.03) × 10^8	~ 6 °C	–	COc1cc2c(cc1OCCCCCOc1cc3c(cc1OC)C(=O)N1CCC[C@H]1C(=O)N3)N=C[C@@H]1CCCN1C2=O
–	0.45	0.0597 (±0.01) × 10^8	–	-7 °C	COc1cc2c(cc1OCCCC(=O)Nc1ccc3ccc4cccc5ccc1c3c45)N=C[C@@H]1CCCN1C2=O
